Measurements taken from the supplement of paper PMC8671470.

Tests used:
Conditions in all cases: 72 h
BV-173 = test system: BV-173
How it was run: (§1)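 Fifteen myeloid leukaemia cell lines were seeded in RPMI 1640 at a density titrated to the linear growth range. Each line went into 384-well plates with compounds acoustically pre-printed at five tenfold doses from 1 to 10,000 nM, in duplicate, and was incubated for 72 h at 37 °C with 5% CO2. Luminescent ATP viability was normalised to vehicle and to a positive control at 10 µM. The IC50 came from four-parameter log-logistic dose–response fits.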

HEL = test system: HEL
How it was run: as §1

HL-60 = test system: HL-60
How it was run: as §1

K-562 = test system: K-562
How it was run: as §1

KCL-22 = test system: KCL-22
How it was run: as §1

KG-1 = test system: KG-1
How it was run: as §1

KU-812 = test system: KU-812
How it was run: as §1

LAMA-84 = test system: LAMA-84
How it was run: as §1

ML-2 = test system: ML-2
How it was run: as §1

MOLM-13 = test system: MOLM-13
How it was run: as §1

MV4-11 = test system: MV4-11
How it was run: as §1

Mono-Mac-6 = test system: Mono-Mac-6
How it was run: as §1

NOMO-1 = test system: NOMO-1
How it was run: as §1

SHI-1 = test system: SHI-1
How it was run: as §1

THP-1 = test system: THP-1
How it was run: as §1

SMILES	IC50 (cell viability) (BV-173) [µM]	IC50 (cell viability) (HEL) [µM]	IC50 (cell viability) (HL-60) [µM]	IC50 (cell viability) (K-562) [µM]	IC50 (cell viability) (KCL-22) [µM]	IC50 (cell viability) (KG-1) [µM]	IC50 (cell viability) (KU-812) [µM]	IC50 (cell viability) (LAMA-84) [µM]	IC50 (cell viability) (ML-2) [µM]	IC50 (cell viability) (MOLM-13) [µM]	IC50 (cell viability) (MV4-11) [µM]	IC50 (cell viability) (Mono-Mac-6) [µM]	IC50 (cell viability) (NOMO-1) [µM]	IC50 (cell viability) (SHI-1) [µM]	IC50 (cell viability) (THP-1) [µM]
Clc1ccc2c(c1Cl)CNCC2	> 10	> 10	> 10	> 10	> 10	> 10	> 10	> 10	> 10	> 10	> 10	> 10	> 10	> 10	> 10
O=C(O)C(S)=Cc1c[nH]c2ccc(F)cc12	> 10	> 10	> 10	> 10	> 10	> 10	> 10	> 10	> 10	> 10	> 10	> 10	> 10	> 10	> 10
CC(C)Cc1sc(N)nc1-c1ccc(P(=O)(O)O)o1	> 10	> 10	> 10	> 10	> 10	> 10	> 10	> 10	> 10	> 10	> 10	> 10	> 10	> 10	> 10
Cl.OC[C@H]1NC[C@@H](O)[C@@H](O)[C@@H]1O [1-Deoxymannojirimycin hydrochloride]	> 10	> 10	> 10	> 10	> 10	> 10	> 10	> 10	> 10	> 10	> 10	> 10	> 10	> 10	> 10
CN(C)c1nc(O)c2[nH]cnc2n1 [2-Dimethylamino-6-hydroxypurine]	> 10	> 10	> 10	> 10	> 10	> 10	> 10	> 10	> 10	> 10	> 10	> 10	> 10	> 10	> 10
O=C(O)c1cc2sccc2[nH]1 [4H-thieno[3,2-b]pyrrole-5-carboxylic acid]	> 10	> 10	> 10	> 10	> 10	> 10	> 10	> 10	> 10	> 10	> 10	> 10	> 10	> 10	> 10
[N-]=[N+]=CC(=O)CC[C@H](N)C(=O)O [6-Diazo-5-oxo-L-norleucine]	> 10	> 10	> 10	> 10	> 10	> 10	> 10	> 10	> 10	> 10	> 10	> 10	> 10	> 10	> 10
Sc1ncnc2nc[nH]c12 [6-mercaptopurine]	0.527	1.91	0.964	0.732	1.01	> 10	2.51	1.33	1.1	0.907	0.332	1.03	0.441	1.52	> 10
O=C(O)CC[C@H](NC(=O)c1ccc([N+](=O)[O-])cc1)C(=O)O [(S)-2-(4-Nitrobenzamido)pentanedioic acid]	> 10	> 10	> 10	> 10	> 10	> 10	> 10	> 10	> 10	> 10	> 10	> 10	> 10	> 10	> 10
O=C1Nc2ccccc2/C1=C\NCCc1ccc(O)c(O)c1 [AC1NZZMF]	> 10	> 10	> 10	> 10	> 10	> 10	> 10	> 10	> 10	> 10	> 10	> 10	> 10	> 10	> 10
Cc1ccc(S(=O)(=O)NC2c3ccccc3Oc3ccccc32)cc1 [AH-7614]	> 10	> 10	> 10	> 10	> 10	> 10	> 10	> 10	> 10	> 10	> 10	> 10	> 10	> 10	> 10
C[C@]12CC[C@H](O)CC1=CC[C@@H]1[C@@H]2CC[C@]2(C)C(c3cccnc3)=CC[C@@H]12 [Abiraterone]	> 10	> 10	> 10	> 10	> 10	> 10	> 10	> 10	> 10	> 10	> 10	> 10	> 10	> 10	> 10
O=C(COc1ccc(C(=O)c2ccccc2)cc1)NC1CCN(Cc2ccccc2)CC1 [AdipoRon]	7.82	> 10	> 10	> 10	> 10	9.73	8.38	> 10	> 10	> 10	> 10	> 10	> 10	> 10	> 10
CCOC(=O)[C@H]1O[C@@H]1C(=O)N[C@@H](CC(C)C)C(=O)NCCC(C)C [Aloxistatin]	> 10	> 10	> 10	> 10	> 10	> 10	> 10	> 10	> 10	> 10	> 10	> 10	5.52	> 10	> 10
N[C@](CCCCB(O)O)(CCN1CCCCC1)C(=O)O [Arginase inhibitor 1]	> 10	> 10	> 10	> 10	> 10	> 10	> 10	> 10	> 10	> 10	> 10	> 10	> 10	> 10	> 10
Cc1noc2c1-c1ccccc1C(c1ccc(Cl)cc1)=N[C@H]2CC(N)=O [CPI-0610]	0.538	1.52	0.2	0.377	0.624	0.135	0.422	1.59	1.26	0.274	0.146	0.142	0.349	0.5	0.765
